Assay results reported in ChEMBL document CHEMBL1201862, “PubChem BioAssay data set” (2004).
The source made the active and inactive calls.

Key:
HT-1080 = experiment: HT1080 cell viability loss – fluorescence readout (AID 620); type: functional, cell-based; settings: Homo sapiens
[1] = target: T1, Luciferin 4-monooxygenase (Photinus pyralis, UniProt P08659); experiment: Counter Screen for Luciferase-based Assay Positives. [Related pubchem assays: 620, 618, 411 ]
[2] = target: Glyceraldehyde-3-phosphate dehydrogenase (Homo sapiens, UniProt P04406)
Chain of Glyceraldehyde-3-phosphate dehydrogenase (P04406 whole entry): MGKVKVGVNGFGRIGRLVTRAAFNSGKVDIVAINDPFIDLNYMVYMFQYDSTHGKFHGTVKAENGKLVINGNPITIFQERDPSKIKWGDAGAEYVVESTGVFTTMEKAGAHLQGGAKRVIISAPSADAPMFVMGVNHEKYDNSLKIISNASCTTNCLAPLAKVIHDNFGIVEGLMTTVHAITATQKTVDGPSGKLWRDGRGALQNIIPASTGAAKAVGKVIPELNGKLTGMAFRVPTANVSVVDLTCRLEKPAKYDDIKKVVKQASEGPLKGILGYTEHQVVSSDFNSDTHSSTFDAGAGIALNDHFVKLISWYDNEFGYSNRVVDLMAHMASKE

[3] = HEK-293T cell viability reduction – luminescence, B-cell screen hits, cytotoxicity control for BCR NF-kB inhibitor project, dose response (AID 489021); type: functional, cell-based;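 further: HEK-293T cells carrying an NF-kB luciferase reporter; cells exposed to compound for about 14 hours before viability readout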
[4] = target: T2, Heat shock factor protein 1 (Mus musculus, UniProt P38532); experiment: decrease of HSF1-responsive luciferase luminescence – cell-based, NIH3T3, dose retest, confirmation (AID 2382); type: functional;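 further: NIH3T3 fibroblasts with HSF1-driven luciferase reporter stressed by proteasome inhibitor MG132; luminescence from HSF1-driven luciferase expression after 8 hours of MG132 stress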
T2 sequence (P38532 whole entry): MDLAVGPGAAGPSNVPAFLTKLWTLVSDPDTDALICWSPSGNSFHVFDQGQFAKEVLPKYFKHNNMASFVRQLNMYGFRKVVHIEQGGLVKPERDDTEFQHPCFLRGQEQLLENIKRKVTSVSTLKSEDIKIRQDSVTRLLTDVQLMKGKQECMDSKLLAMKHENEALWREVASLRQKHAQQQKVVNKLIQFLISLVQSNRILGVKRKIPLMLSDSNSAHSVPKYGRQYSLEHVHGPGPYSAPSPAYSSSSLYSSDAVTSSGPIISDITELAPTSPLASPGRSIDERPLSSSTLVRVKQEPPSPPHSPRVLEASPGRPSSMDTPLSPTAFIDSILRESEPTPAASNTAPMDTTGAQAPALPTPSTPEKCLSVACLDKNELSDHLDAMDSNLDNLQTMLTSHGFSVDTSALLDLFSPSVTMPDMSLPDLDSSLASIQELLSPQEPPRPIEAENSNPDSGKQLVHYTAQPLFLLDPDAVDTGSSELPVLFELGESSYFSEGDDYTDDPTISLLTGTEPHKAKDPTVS

[5] = target: DNA dC->dU-editing enzyme APOBEC-3G (Homo sapiens, UniProt Q9HC16); experiment: Dose Response confirmation of small molecule APOBEC3G DNA Deaminase Inhibitors via a fluorescence-based single-stranded DNA deaminase assay. [Related pubchem assays (depositor defined):AID493012, AID493028]; type: functional
Chain of DNA dC->dU-editing enzyme APOBEC-3G (Q9HC16 whole entry): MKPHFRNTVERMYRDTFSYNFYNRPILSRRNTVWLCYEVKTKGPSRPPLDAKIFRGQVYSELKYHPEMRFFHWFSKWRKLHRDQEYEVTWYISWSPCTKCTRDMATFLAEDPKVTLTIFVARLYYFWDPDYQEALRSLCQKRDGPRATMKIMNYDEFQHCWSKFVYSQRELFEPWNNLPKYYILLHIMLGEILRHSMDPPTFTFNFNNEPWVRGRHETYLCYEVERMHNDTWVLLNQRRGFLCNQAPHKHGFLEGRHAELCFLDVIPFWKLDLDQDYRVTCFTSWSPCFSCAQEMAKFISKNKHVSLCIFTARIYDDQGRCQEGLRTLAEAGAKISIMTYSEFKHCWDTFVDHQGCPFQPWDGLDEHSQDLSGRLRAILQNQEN

[6] = target: DNA dC->dU-editing enzyme APOBEC-3A (Homo sapiens, UniProt P31941); experiment: A3A deaminase inhibition for selectivity – biochemical, dose response (AID 504722); type: functional
Chain of DNA dC->dU-editing enzyme APOBEC-3A (P31941 whole entry): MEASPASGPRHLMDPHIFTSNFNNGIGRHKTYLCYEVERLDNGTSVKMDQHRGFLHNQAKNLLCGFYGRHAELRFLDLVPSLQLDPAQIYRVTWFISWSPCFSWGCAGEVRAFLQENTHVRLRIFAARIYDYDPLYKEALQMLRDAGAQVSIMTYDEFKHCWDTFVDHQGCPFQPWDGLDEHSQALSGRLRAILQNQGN

[7] = Luminescence Cell-Based Dose Response HTS to Identify Inhibitors of 5'UTR Stem-Loop Driven Prion Protein mRNA Translation in H4 Neuroglioblastoma Cells. [Related pubchem assays: 1827 (Project Summary), 1813 (Primary HTS)]; type: functional
[8] = alpha-synuclein stem-loop luciferase translation blockers – H4 neuroglioma cells, luminescence, confirmation (AID 1988); type: functional, cell-based
[9] = luciferase reporter signal suppression in cells – H4 neuroglioma cells, luminescence, dose response (AID 1990); type: functional, cell-based
[10] = off-target signal loss in HeLa-CEM21 co-culture – HeLa F-luc CTL cells, cherry-picked, counter-screen for HIV-1 Env fusion inhibitor project, dose response (AID 652040); type: functional, cell-based;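 further: potency for signal decrease marking cytotoxic or nonspecific inhibition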
[11] = target: T1, Luciferin 4-monooxygenase; experiment: inhibition of purified Photinus pyralis luciferase – biochemical, luminescence, dose response (AID 1891)
[12] = target: Glucose-6-phosphate 1-dehydrogenase (Homo sapiens, UniProt P11413); experiment: inhibition of Homo sapiens G6PD, dose series – biochemical, fluorescence, selectivity assay for P. falciparum G6PD inhibitor project, dose response (AID 504792); type: functional
Chain of Glucose-6-phosphate 1-dehydrogenase (P11413 whole entry): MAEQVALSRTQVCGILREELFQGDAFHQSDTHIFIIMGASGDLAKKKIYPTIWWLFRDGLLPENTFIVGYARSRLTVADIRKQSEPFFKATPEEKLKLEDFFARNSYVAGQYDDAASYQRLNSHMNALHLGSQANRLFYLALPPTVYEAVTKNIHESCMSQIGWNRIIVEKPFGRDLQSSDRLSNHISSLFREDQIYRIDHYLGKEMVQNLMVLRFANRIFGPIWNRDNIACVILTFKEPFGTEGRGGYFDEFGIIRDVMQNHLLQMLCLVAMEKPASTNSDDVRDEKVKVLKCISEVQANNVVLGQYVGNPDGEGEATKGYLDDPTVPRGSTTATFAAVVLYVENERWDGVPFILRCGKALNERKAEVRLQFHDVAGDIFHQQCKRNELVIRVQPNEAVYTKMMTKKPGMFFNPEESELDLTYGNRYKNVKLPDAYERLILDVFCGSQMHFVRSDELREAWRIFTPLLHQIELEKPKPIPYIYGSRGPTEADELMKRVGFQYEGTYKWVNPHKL

[13] = target: T3, Corticotropin-releasing factor receptor 2/Corticotropin-releasing factor-binding protein (Homo sapiens, UniProt P24387+Q13324); experiment: Dose Response confirmation of uHTS hits for small molecule antagonists of the CRF-binding protein and CRF-R2 receptor complex.; type: functional; settings: read-out: IC50_Mean
T3 sequence (Q13324 whole entry): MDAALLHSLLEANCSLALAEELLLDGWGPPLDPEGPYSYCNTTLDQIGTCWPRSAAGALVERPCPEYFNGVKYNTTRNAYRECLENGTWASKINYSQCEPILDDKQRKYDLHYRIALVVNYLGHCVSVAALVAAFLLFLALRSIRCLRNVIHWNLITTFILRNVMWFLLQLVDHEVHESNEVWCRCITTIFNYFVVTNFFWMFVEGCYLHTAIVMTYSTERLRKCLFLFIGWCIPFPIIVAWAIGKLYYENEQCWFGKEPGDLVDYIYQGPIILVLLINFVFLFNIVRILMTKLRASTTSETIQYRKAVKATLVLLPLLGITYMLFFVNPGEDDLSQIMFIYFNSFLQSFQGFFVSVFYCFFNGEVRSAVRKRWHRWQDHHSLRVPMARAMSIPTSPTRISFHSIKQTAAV
T3 sequence (P24387 whole entry): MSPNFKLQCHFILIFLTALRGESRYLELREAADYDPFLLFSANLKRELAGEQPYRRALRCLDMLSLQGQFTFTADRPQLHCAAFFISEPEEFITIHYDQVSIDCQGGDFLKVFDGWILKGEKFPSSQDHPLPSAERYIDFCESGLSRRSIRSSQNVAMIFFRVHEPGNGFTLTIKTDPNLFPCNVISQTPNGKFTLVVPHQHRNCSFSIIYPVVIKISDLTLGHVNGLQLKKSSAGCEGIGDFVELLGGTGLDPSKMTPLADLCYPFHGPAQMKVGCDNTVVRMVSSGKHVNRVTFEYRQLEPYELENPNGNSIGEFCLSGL

[14] = target: T4, Short transient receptor potential channel 4 (Mus musculus, UniProt Q9QUQ5); experiment: block of DAMGO-driven TRPC4 calcium entry – cell-based, HEK293 TRPC4/mu-opioid, Fluo-4 calcium, dose response (AID 434942); type: functional;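 further: potency of inhibitors blocking the TRPC4 calcium response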
T4 sequence (Q9QUQ5 whole entry): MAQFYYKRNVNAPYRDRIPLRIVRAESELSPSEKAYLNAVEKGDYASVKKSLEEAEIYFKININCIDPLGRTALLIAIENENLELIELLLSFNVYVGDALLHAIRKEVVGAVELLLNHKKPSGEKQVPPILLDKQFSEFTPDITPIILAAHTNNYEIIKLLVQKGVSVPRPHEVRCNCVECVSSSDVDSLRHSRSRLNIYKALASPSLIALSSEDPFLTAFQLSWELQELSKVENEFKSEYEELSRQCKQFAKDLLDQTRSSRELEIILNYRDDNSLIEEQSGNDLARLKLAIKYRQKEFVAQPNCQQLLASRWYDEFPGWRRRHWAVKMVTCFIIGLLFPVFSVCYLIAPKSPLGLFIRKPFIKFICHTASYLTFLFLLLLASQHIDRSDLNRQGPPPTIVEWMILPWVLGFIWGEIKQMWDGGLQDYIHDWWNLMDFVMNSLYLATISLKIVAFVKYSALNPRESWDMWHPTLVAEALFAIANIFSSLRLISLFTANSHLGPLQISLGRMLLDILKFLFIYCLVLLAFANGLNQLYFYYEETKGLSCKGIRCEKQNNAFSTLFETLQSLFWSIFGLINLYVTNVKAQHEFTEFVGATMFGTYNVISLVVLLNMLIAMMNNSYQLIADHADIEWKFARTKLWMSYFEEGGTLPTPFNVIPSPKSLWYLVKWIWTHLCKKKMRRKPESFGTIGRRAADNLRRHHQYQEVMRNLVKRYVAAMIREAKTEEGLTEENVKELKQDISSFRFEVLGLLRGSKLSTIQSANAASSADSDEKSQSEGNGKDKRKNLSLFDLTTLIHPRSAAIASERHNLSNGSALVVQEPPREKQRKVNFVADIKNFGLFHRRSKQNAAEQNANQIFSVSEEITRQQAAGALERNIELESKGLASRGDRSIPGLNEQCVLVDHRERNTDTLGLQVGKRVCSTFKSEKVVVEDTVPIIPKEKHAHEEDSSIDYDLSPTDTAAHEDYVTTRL

[15] = target: T3, Corticotropin-releasing factor receptor 2/Corticotropin-releasing factor-binding protein; experiment: activators of CRF receptor 2 with binding protein – uHTS hits, confirmation (AID 602473); type: functional; settings: read-out: EC50_Mean
[16] = viability of uninfected HEp-2 cells – cell-based, HTS, cytotoxicity control for RSV inhibitor project, dose response (AID 2410); type: functional; settings: human respiratory syncytial virus
[17] = target: Eukaryotic translation initiation factor 4E (Mus musculus, UniProt P63073); experiment: blockers of eIF4G binding by eIF4E – biochemical, TR-FRET, dose response (AID 855); type: functional;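 further: potency for disrupting eIF4E binding to eIF4GI seen as loss of FRET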
Chain of Eukaryotic translation initiation factor 4E (P63073 whole entry): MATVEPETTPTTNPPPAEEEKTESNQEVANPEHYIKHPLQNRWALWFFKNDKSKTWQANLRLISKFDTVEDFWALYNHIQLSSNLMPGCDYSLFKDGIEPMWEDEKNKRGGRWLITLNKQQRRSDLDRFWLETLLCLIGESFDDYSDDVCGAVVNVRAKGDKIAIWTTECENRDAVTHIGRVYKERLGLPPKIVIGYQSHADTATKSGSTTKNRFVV

[18] = target: Induced myeloid leukemia cell differentiation protein Mcl-1 (Homo sapiens, UniProt Q07820); type: functional
Chain of Induced myeloid leukemia cell differentiation protein Mcl-1 (Q07820 whole entry): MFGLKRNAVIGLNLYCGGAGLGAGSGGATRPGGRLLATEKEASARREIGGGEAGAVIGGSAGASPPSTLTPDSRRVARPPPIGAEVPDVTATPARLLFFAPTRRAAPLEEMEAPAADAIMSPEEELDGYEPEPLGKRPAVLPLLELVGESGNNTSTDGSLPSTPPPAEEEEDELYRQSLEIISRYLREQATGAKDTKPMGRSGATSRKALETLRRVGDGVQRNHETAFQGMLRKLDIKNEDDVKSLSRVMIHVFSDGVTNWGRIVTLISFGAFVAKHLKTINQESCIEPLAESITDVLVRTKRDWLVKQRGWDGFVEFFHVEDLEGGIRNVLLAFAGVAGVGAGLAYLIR

Coagulation factor XII = target: T5, Coagulation factor XII (Homo sapiens, UniProt P00748); type: functional;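 further: activated factor XIIa alpha cleaving a fluorogenic AMC peptide substrate; inhibitor potency from loss of enzyme activity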
T5 sequence (P00748 whole entry): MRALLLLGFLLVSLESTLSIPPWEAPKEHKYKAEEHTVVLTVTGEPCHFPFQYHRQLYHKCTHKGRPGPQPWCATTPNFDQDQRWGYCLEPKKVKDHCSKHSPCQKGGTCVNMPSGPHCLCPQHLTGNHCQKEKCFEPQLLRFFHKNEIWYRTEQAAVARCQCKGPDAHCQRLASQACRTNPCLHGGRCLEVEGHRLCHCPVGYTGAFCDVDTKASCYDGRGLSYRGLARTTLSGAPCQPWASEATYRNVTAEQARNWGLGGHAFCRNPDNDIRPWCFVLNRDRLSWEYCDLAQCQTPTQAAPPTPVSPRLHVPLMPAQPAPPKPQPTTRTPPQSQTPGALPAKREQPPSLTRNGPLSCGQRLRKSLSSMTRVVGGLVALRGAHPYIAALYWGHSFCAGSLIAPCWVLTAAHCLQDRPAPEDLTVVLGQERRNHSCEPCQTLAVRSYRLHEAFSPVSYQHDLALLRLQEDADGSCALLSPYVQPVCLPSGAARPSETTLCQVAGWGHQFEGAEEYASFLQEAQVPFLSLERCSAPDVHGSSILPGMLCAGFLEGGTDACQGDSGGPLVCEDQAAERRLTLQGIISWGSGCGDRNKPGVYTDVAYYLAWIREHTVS

[19] = Dd2 malaria parasite growth inhibition potency – SYBR Green, dry powder samples, dose response (AID 1159566); type: functional, cell-based;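 further: potency for growth inhibition with lower SYBR green DNA signal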
[20] = growth inhibition of PfATP4-mutant resistant parasites – NITD609-resistant line, SYBR Green, dry powder, dose response (AID 1159571); type: functional, cell-based;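 further: parasites synchronized at ring stage by sorbitol before testing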
[21] = P. falciparum Dd2 growth inhibitors, dose response, SYBR Green, cherry-picked samples (AID 1159567); type: functional, cell-based
[22] = growth inhibition of yeast DHODH-expressing 3D7 parasites – SYBR Green, dry powder samples, dose response (AID 1159570); type: functional, cell-based;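 further: parasite growth measured after 72 hours of compound exposure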

T1 sequence (P08659 whole entry): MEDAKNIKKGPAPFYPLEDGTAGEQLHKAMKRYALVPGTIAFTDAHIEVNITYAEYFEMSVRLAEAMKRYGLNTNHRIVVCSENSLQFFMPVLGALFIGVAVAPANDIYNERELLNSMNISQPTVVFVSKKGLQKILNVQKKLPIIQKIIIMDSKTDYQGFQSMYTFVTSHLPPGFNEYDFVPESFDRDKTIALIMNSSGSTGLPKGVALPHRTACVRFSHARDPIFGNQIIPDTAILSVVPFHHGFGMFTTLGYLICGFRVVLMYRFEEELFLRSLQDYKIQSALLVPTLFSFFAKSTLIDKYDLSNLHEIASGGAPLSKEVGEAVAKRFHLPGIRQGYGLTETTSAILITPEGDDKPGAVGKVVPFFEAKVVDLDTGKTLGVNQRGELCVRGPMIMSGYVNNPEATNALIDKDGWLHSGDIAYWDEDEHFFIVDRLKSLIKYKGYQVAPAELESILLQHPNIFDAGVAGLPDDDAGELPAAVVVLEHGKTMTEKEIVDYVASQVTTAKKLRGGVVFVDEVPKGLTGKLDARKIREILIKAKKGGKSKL

SMILES: Cc1ccoc1C(=O)Nc1ccc(CC(=O)O)cc1
- EC50 (HT-1080): > 50 µM (not active)
- EC50 [1]: 1.12 µM (active)
- IC50 [2]: > 100 µM (not active)
- IC50 [3]: > 80 µM (inactive)

SMILES: COCCn1c(-c2ccc(Cl)cc2Cl)nc2c(c(=O)c3ccccc3n2C)c1=O
- IC50 (cells): > 50 µM (active)

SMILES: CC1(C)Cc2ccccc2-c2n[nH]c(=S)n21
- EC50 [4]: > 195 µM (not active)
- IC50 [5]: 4.33 µM (active)
- IC50 [6]: > 100 µM (inactive)

SMILES: COc1ccc(OC)c(-c2cc(C(=O)Nc3c(C)nn(Cc4ccc(Cl)cc4)c3C)no2)c1
- EC50 [7]: 19.5 µM (active)
- EC50 [8]: 13.9 µM (active)
- EC50 [9]: 13.6 µM (active)
- AC50 [10]: > 70 µM (inactive)

SMILES: Cc1[nH]c(=S)c(C#N)c(C)c1CCC#N
- EC50 [11]: > 112 µM (not active)
- IC50 [12]: > 80 µM (inactive)
- IC50 [5]: 9.7 µM (active)
- IC50 [6]: > 100 µM (inactive)

SMILES: Cc1nn(-c2cccc(Cl)c2)c2nc(C(F)(F)F)[nH]c(=O)c12
- IC50 [13]: 2.6 µM (active)
- EC50 [14]: 3.35 µM (active)
- EC50 [15]: > 53 µM (inactive)

SMILES: O=C(Nc1cccc(S(=O)(=O)Nc2ccccc2F)c1)c1ccc2ccccc2n1
- IC50 [5]: 15.6 µM (active)
- IC50 [6]: > 100 µM (inactive)

SMILES: CCOC(=O)C1(Cc2cccc(OC)c2)CCN(Cc2cccn2-c2nccs2)CC1
- IC50 (cells): 10.2 µM (active)
- CC50 [16]: > 50 µM (active)

SMILES: CCNC(=O)C1=C(O)c2sccc2N(C)S1(=O)=O
- IC50 [17]: 50 µM (inactive)

SMILES: Fc1cccc(-c2n[nH]c(=S)n2-c2ccccc2)c1
- IC50 [5]: 4.26 µM (active)
- IC50 [6]: > 100 µM (inactive)

SMILES: Cc1cc(C)nc(NC(=N)Nc2ccc(CC(=O)OC(C)C)cc2)n1
- AC50 [10]: 22.1 µM (active)

SMILES: CC(C)C(=O)Nc1ccc(-c2nc3cccnc3o2)cc1
- EC50 (HT-1080): > 50 µM (not active)
- EC50 [1]: < 0.2 µM (active)

SMILES: O=C1NC(c2ccc3c(c2)OCO3)Oc2ccccc21 (stereo not drawn)
- IC50 [17]: > 64 µM (inactive)

SMILES: Cc1ccccc1CC1(CO)CCCN(Cc2c(C)nn(C)c2Cl)C1 (stereo not drawn)
- IC50 (cells): 7.18 µM (active)
- CC50 [16]: 49.4 µM (active)

SMILES: O=C(N/N=C/c1ccc(O)cc1)c1cccc(N/N=C/c2ccc(O)cc2)c1
- IC50 [18]: 6.06 µM (active)

SMILES: C/C(=N\NC(=O)c1cccc(N/N=C(\C)c2ccccc2)c1)c1ccccc1
- IC50 (Coagulation factor XII): > 50 µM (inactive)

SMILES: C[C@@H]1CN([C@@H](C)CO)C(=O)c2cccc(NC(=O)c3ccc(-c4nccs4)cc3)c2O[C@H]1CN(C)Cc1ccc(Cl)c(Cl)c1
- AC50 [19]: 922 nM (active)
- AC50 [20]: 692 nM (active)
- AC50 [21]: 1.7 µM (active)
- AC50 [22]: 1.25 µM (active)
